Common to all, as to test: Fluo-4 calcium flux in transfected HEK293T cells
In general terms: A change in cytosolic calcium serves as a functional read-out for many receptors and channels.

One assay has as its system T1, MuTRPA1.
T1 construct: gene TRPA1; full-length ORF (1403 aa, 16 ankyrin repeats) in pcDNA3.1(+)-mCherry, HEK293T cells
The class given is cell-based, Megalurothrips usitatus. The following applies: agonist; DMSO as negative control.

Another assay deals with T2, PjTRPA1.
T2 construct: gene TRPA1; full-length in pcDNA3.1(+)-mCherry, HEK293T cells
Format: cell-based, Propylea japonica. The settings on record: agonist; DMSO as negative control. From the text:
Fluo-4 calcium flux in transfected HEK293T cells on PjTRPA1 | Concentration-response curves of nepetalactone-induced calcium signaling in HEK293T cells heterologously expressing HaTRPA1 or PjTRPA1

The next assay has as its target T3, HaTRPA1 (Harmonia axyridis, UniProt Z9S2A3GZC9).
T3 construct: full-length in pcDNA3.1(+)-mCherry, HEK293T cells
T3 sequence (Z9S2A3GZC9 1-1276): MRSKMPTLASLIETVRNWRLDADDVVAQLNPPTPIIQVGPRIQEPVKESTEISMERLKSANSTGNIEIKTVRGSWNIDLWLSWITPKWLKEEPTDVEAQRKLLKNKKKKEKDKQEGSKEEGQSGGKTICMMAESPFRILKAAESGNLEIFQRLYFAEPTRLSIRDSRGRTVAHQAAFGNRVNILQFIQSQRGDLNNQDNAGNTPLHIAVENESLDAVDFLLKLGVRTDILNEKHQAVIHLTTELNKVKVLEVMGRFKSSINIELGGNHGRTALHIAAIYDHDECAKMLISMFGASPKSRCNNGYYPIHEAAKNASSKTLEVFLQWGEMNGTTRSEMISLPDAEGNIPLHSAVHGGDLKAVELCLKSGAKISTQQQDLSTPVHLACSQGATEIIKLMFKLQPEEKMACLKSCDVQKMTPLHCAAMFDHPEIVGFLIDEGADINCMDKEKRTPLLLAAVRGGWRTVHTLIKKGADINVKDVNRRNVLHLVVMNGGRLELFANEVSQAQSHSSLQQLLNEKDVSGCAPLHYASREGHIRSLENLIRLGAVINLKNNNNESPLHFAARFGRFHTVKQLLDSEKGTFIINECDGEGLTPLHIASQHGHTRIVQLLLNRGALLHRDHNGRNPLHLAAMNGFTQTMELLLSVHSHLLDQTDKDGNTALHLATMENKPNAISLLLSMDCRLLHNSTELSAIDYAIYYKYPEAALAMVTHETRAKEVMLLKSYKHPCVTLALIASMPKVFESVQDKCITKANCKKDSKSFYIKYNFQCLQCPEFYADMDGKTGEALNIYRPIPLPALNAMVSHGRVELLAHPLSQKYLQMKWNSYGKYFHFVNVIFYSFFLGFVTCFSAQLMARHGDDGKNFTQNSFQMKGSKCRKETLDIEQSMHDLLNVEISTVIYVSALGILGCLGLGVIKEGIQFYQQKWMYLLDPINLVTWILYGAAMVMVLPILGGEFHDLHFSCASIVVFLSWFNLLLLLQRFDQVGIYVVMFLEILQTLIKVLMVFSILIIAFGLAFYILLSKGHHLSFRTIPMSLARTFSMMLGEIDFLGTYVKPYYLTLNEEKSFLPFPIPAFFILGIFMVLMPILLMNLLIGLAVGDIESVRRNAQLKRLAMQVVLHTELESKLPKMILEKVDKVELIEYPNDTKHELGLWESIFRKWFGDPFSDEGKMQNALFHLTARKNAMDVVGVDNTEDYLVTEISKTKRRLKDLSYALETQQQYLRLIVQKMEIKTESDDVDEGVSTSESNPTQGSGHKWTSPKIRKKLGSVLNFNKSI
Format: cell-based. An excerpt: Fluo-4 calcium flux in transfected HEK293T cells on HaTRPA1 | Concentration-response curves of nepetalactone-induced calcium signaling in HEK293T cells heterologously expressing HaTRPA1 or PjTRPA1

For another assay, the system named is T4, DcTRPA1.
T4 construct: gene TRPA1; full-length ORF (1073 aa, 14 ankyrin repeats) in pcDNA3.1(+)-mCherry, HEK293T cells
The class given is cell-based, Diaphorina citri. The settings on record: agonist; DMSO as negative control.

With `CC1=COC(=O)C2C(C)CCC12` (stereo not shown) [nepetalactone], the EC50 (commonly the concentration needed to bring the measured effect to its halfway point) in the assay with MuTRPA1 was found to be 172 µM; in the assay on PjTRPA1, 128 µM; at HaTRPA1 it was 404 µM; in the assay with DcTRPA1, 698 µM.
